Patent US12351821B2, “Method to prepare sperm” (University of Massachusetts, priority 2016, dated 2025)

Legend:
mouse sperm = experiment: Sperm motility and hyperactivation by CASA after transient A23187 pre-treatment; type: cell-based
Method: (§1) Sperm from CD-1, C57BL6 (K.O control), CatSper KO 19, SLO3 KO (56), Soluble Adenylyl Cyclase KO (20), and PMC4 KO (35) cauda epididymides were allowed to swim out in 1 mL of standard TYH for 10 minutes. Each swim out tube was split in two halves (500 μl each) and one half was incubated with 20 uM A23187 for 10 minutes. Then, the A23187 was washed by centrifugation as described above (2000 and 1500 RPMS×5 min), the remaining sperm were re-suspended in free A23187 TYH standard medium and capacitated for an addition 1 hour and 20 minutes before adding the sperm to the fertilization drop or for CASA analysis.
Sperm suspensions (25 μl) were loaded into one pre-warmed chamber slide (depth, 100 μm) (Leja slide, Spectrum Technologies) and placed on a microscope stage at 37° C. Sperm movements were examined using the CEROS computer-assisted semen analysis (CASA) system (Hamilton Thorne Research, Beverly, MA). The default settings include the following: frames acquired: 90; frame rate: 60 Hz; minimum cell size: 4 pixels; static head size: 0.13-2.43; static head intensity: 0.10-1.52; static head elongation: 5-100. Sperm with hyper activated motility, defined as motility with high amplitude thrashing patterns and short distance of travel, were sorted using the criteria established by (64). The data was analyzed using the CASA nova software (64). At least 20 microscopy fields corresponding to a minimum of 200 sperm were analyzed in each experiment.

[1] = tested on: mouse sperm (fertilizing capacity, metaphase II-arrested eggs); experiment: In vitro fertilization assay with ionophore pre-treated sperm; type: cell-based; details: for fertilizing capacity: A23187 treatment
Method: as §1
Metaphase II-arrested eggs were collected from 6-8 week-old super ovulated CD-1 female mice (Charles River Laboratories). Females were each injected with 5-10 IU equine chorionic gonadotropin and 5-10 IU human chorionic gonadotropin 48 h apart. The cumulus-oocyte complexes (COC's) were placed into a well with 500 μl of media (TYH standard medium) previously equilibrated in an incubator with 5% CO2 at 37° C. Fertilization wells containing 20-30 eggs were inseminated with sperm (final concentration of 2.5×10^6 cells/ml) that had been incubated for 1 h and 20 min (in a medium supporting capacitation with or without calcium ionophore treatment A23187). After 4 h of insemination, eggs were washed and put in a fresh media. The eggs were evaluated 24 h post-insemination. To assess fertilization the three following criteria were considered: 1) the formation of the male and female pronuclei, 2) the emission of the second polar body, and 3) two cells stages.

[2] = tested on: 2 cell embryos from eggs fertilized by treated sperm; experiment: Embryo culture of 2 cell embryos in KSOM to blastocyst stage; type: cell-based, mouse; details: for percentage of blastocyst in relation to the number of two-cell embryos: CatSper KO sperm, 3.5 days in KSOM
Method: (§2) Fertilized 2 cell embryos were cultured in KSOM media to blastocyst stage between 3.5 days wt and K. O between 3.8 to 4.1 days. Then they were transferred to 2.5 days post coitum (dpc) pseudo-pregnant CD-1 recipient females using the non-surgical uterine embryo transfer device (65). Pseudo-pregnant CD-1 recipient females were obtained by mating with vasectomized males one day after in vitro fertilization. Only females with a clear plug were chosen as embryo recipients; late morula and early stage blastocysts were chosen to be transferred. Routine genotyping was performed with total DNA from tail biopsy samples from weaning age pups as templates for PCR using genotyping primers for Catsper gene forward [5′-[…]-3′, Seq ID NO: 1] and reverse [S′-[…]-3′; Seq ID NO: 2] and for the reporter gene Lacz forward [5′[…]-3′; Seq ID NO: 3] and reverse [5′-[…]-3′: Seq ID NO: 4] (19).

[3] = tested on: pseudo-pregnant CD-1 recipient females; experiment: Non-surgical embryo transfer to pseudo-pregnant females, pups born; type: in vivo, mouse
Method: as §2

PKA = experiment: Western blot with anti-phosphoPKA substrate antibodies in sperm; type: cell-based, mouse
Method: Cauda epididymal mouse sperm were placed in 1 ml Hepes-TYH media as stated in figure legend for each experiment. After 10 min incubation at 37° C., epididymides were removed, and the suspension adjusted with non-cap medium to a final concentration of 1-2×10^7 cells/ml. After dilution 1:4 (total 400 μl), sperm were incubated at 37° C. for 1 hour in conditions that support or not capacitation. For capacitation, media was supplemented with 15 mM NaHCO3 and 4 mg/ml BSA. For A23187 treatment, 500 uL of the sperm suspension were taken from the initial swim out and supplemented with 20 μM A23187 for 10 minutes. Then, A23187 was washed off with 2 rounds of centrifugations 1-) 2000 RPMS and the 2-) 1500 RPMS for 5 min each. Sperm were re-suspended in free A23187 media. To evaluate the behavior of A23187 when PKA is inactivated, H89 was used at a concentration of 50 uM for all incubation periods including those used for washing A23187. Sperm proteins were then extracted for western blotting.
Sperm were centrifuged, and washed in 1 ml of phosphate buffer solution (PBS), re-suspended in Laemmli sample buffer (63), and boiled for 4 min. Before Loading, 5% β-mercaptoethanol was added to the protein extracts and boiled for 3 min. Protein extracts equivalent to 1×10^6 sperm were loaded per line and subjected to SDS-PAGE an electro-transfer to PVDF membranes (Bio-Rad) at 250 mA for 60 min on ice. […]

[4] = H89-treated C57BL6 sperm incubated 10 min in A23187

Structure (SMILES): CNc1ccc2oc(C[C@H]3O[C@@]4(CC[C@H]3C)O[C@H]([C@H](C)C(=O)c3ccc[nH]3)[C@H](C)C[C@H]4C)nc2c1C(=O)O [A23187]
- percentage of hyperactive sperm (mouse sperm; C57BL6 sperm, short pulse of A23187 (20 uM, 10 min), compared with CD1 sperm): increased the percentage of hyperactive C57BL6 sperm to similar levels as those obtained using CD1 sperm
- hyperactivated motility (mouse sperm; CatSper1 KO sperm, 20 μM A23187 10 min then washed): a significant number of CatSper KO sperm exhibited hyperactivated motility
- sperm motility (mouse sperm; PMCA4 KO sperm, A23187 addition and removal): rendered all the sperm motionless and their motility was not recovered after ionophore removal
- hyperactivated motility (mouse sperm; PMCA4 KO sperm, A23187 treatment): neither their hyperactivated motility nor their fertilizing capacity was rescued
- hyperactivation (mouse sperm; sAC KO and SLO3 KO sperm, A23187 for 10 min): underwent hyperactivation
- sperm motility (mouse sperm; sAC KO sperm, A23187 for 10 min): a significant fraction of sAC KO sperm became motile
- sperm fertilization rate ([1]; C57BL6 sperm, A23187 pre-treatment): significant increase
- infertile phenotype (two-cell embryos developed) ([1]; CatSper1 KO sperm, A23187 transient treatment alone): rescued the infertile phenotype
- fertilization of metaphase II-arrested eggs in vitro ([1]; CatSper KO sperm, A23187-treated): competent to fertilize
- fertilization rate ([1]; CatSper KO sperm, starved plus rescue treatment followed by A23187 transient treatment): ~90%
- sperm fertilization rate ([1]; FerTDR/DR sperm, A23187 transient incubation): improved
- fertilizing capacity of H89-treated sperm [1, 4]: sufficient to induce fertilizing capacity
- fertilizing capacity ([1]; PMCA4 KO sperm): neither their hyperactivated motility nor their fertilizing capacity was rescued
- fertilizing capacity ([1]; sAC KO and SLO3 KO sperm): induced fertilizing capacity in sperm from both KO models
- percentage of blastocyst in relation to the number of two-cell embryos ([2]; A23187 transient treatment alone): 20%
- percentage of blastocyst in relation to the number of two-cell embryos ([2]; combined starved plus rescue with A23187 transient treatment): ~90%
- fertilized eggs that continued to the blastocyst stage ([2]; eggs fertilized by C57BL6 sperm after A23187 treatment, control about 50%): over 80%
- outcome of blastocysts non-surgically transferred to pseudo pregnant females ([3]; C57BL6 sperm after A23187 treatment): became live pups
- heterozygous pups born ([3]; CatSper KO sperm, A23187 alone, 15 blastocysts transferred): three
- CatSper (+/-) mouse pups born ([3]; blastocysts from A23187-treated CatSper KO sperm, two different females): five
- PKA activity in H89-treated sperm after A23187 (PKA; [4]): PKA remains inactive

Structure (SMILES): O=S(=O)(NCCNCC=Cc1ccc(Br)cc1)c1cccc2cnccc12 [H89, N-[2-[[3-(4-bromophenyl)-2-propen-1-yl]amino]ethyl]5-isoquinolinesulfonamide]
- ability to fertilize in vitro in the presence of PKA inhibitor ([1]; C57BL6 sperm, H89 50 uM): unable to fertilize in vitro
- PKA substrate phosphorylation (PKA; C57BL6 sperm, H89 50 uM): do not show the prototypical increase in PKA substrate phosphorylation
